Results published in patent publication EP0263202A1, “Inhibition of viral protease activity by peptide halomethyl ketones” (priority 1986, dated 1988).
Residues, ends and D or L forms follow the SMILES beside them.

Experiments:
rhinovirus type 1A = test: plaque inhibition assay; format: cell-based, Human rhinovirus type 1A; conditions: HeLa cells, concentration at which activity was noted
Procedure: (§1) One assay, known as a viral cleavage assay, involves comparison of patterns of protein synthesis (as visualized by incorporation of labeled amino acids) in virus-infected HeLa cells grown in the presence and absence of a selected test compound. A second assay, known as a plaque inhibition assay, involves an assessment of the effects of test compounds upon the infectivity of virus in agar-overlaid cell cultures. Toxic effects of a test compound, if any, will also be observed during the incubation period of the plaque inhibition assay. Both assays are described in greater detail below.
In this assay, cultured HeLa cells were grown to confluency in 60 mm plastic petri dishes. Each culture was then infected with approximately 300 plaque-forming units of virus. Human rhinovirus type 1A was used in the test reported below. The virus employed in this experiment was allowed to absorb to the cells for 30 minutes at 34.5°.
The compound tested was dissolved in ethanol at a concentration 100 times greater than the highest concentration to be tested. The resulting solution was then diluted 1:100 into a solution of McCoy's medium containing 5% heat-inactivated fetal calf serum and 0.38% agar. Two-fold dilutions were then made into agar medium. […]

human HeLa-O cells = format: cell-based
Procedure: as §1
When plaques in control cultures were large enough to be observed, yet still relatively discrete, all cultures were stained with 1% crystal violet. Plaques appeared as clear areas in a deep purple field of uninfected cells.

subtilisin BPNʹ = conditions: ranking among a series of peptide chloromethyl ketones; cited from earlier work

Compound | Antiviral activity, as scored by 90% plaque reduction (rhinovirus type 1A) [µg/mL] | cytotoxicity first detected at a concentration (human HeLa-O cells) | inhibition of subtilisin BPNʹ (subtilisin BPNʹ)
CC(C)C[C@H](NC(=O)[C@H](CC(C)C)NC(=O)CNC(=O)[C@H](Cc1ccccc1)NC(=O)OCc1ccccc1)C(=O)CCl [Z-Phe-Gly-Leu-LeuCH₂Cl, N-carbobenzoxy-L-phenylalanyl-L-glycyl-L-leucyl-L-leucine chloromethyl ketone] (HELM PEPTIDE1{[O=C(OCc1ccccc1)[*:2]].F.G.L.L.[ClC[*:1]]}$$$$V2.0) | 1 | about 15 µg/mL | 
acetyl-L-phenyl-alanyl-L-glycyl-L-alanyl-L-leucyl chloromethyl ketone (FGAL; HELM PEPTIDE1{[ac].F.G.A.L.[ClC[*:1]]}$$$$V2.0; SMILES CC(=O)N[C@@H](Cc1ccccc1)C(=O)NCC(=O)N[C@@H](C)C(=O)N[C@@H](CC(C)C)C(=O)CCl) [Ac-Phe-Gly-Ala-LeuCH₂Cl] |  |  | fastest inhibitor
